Data from patent publication US9931338B2, “Syk inhibitors” (Gilead Sciences, Inc., priority 2014, dated 2018).
Structures can show the parent of a compound that is named as a salt.

Test system: human hepatocytes
Assay: Human Hepatocyte Stability Assay
Assay type: in vitro ADME
Conditions: comparison table, Example 12; head prints '(units)', method states L/hr/kg
Protocol: The human […] stability of the compounds as predicted hepatocyte clearance in L/hr/kg was assessed. Compounds to be tested were diluted to 200 μM (4 μl of 10 mM DMSO stock into 196 μl ACN:H2O (50:50). Propranolol was used as a positive control, and buffer only without hepatocytes as 0% control. These were further diluted 4 μl with 891 μl KHB buffer (InVitroGRO catalog number Z99074) to provide 2× dosing solution. To each well of 24 well plate, 250 μl of the 2× dosing solution was added to each well with 250 μl of hepatocytes cells (1×10^6 viable cells/ml per well) or KHB for control samples to achieve a final compound concentration of 1 μM during incubation. The final solvent concentration was 0.01% DMSO and 0.25% ACN. The culture plate was placed on a rocker and incubated at 37° C., 5% CO2. Samples were collected at time 0, 1, 3, and 6 hours. The loss of parent compound was determined using LC-MS methods against a standard curve.

First: COc1ccc(Nc2nc(-c3cccc(N)c3)cn3ccnc23)cc1OC [6-(3-aminophenyl)-N-(3,4-dimethoxyphenyl)imidazo[1,2-a]pyrazin-8-amine, reference compound]
Second: COc1ccc(Nc2nc(-c3ccc(N)nc3)cn3ccnc23)cc1OC [6-(6-aminopyridin-3-yl)-N-(3,4-dimethoxyphenyl)imidazo[1,2-a]pyrazin-8-amine, reference compound]
The “Hheps CL” value of the first is 3.8-fold lower: 0.24 L/h/kg for the first, 0.90 L/h/kg for the second.

`Cc1ncc(-c2cn3ccnc3c(Nc3ccc(N4CCOCC4)cc3)n2)cc1N` [6-(5-amino-6-methylpyridin-3-yl)-N-(4-morpholinophenyl)imidazo[1,2-a]pyrazin-8-amine, reference compound] and `Nc1cncc(-c2cn3ccnc3c(Nc3ccc(N4CCOCC4)cc3)n2)c1` [6-(5-aminopyridin-3-yl)-N-(4-morpholinophenyl)imidazo[1,2-a]pyrazin-8-amine, reference compound] are within 1.5-fold of each other in “Hheps CL” value: 0.80 L/h/kg for the first, 0.68 L/h/kg for the second.

Going from `Cc1ncc(-c2cn3ccnc3c(Nc3ccc(N4CCN(C5COC5)CC4)cc3)n2)nc1N` [Ex.-1, 6-(6-amino-5-methylpyrazin-2-yl)-N-(4-(4-(oxetan-3-yl)piperazin-1-yl)phenyl)imidazo[1,2-a]pyrazin-8-amine] to `Nc1cncc(-c2cn3ccnc3c(Nc3ccc(N4CCN(C5COC5)CC4)cc3)n2)n1` [Ex.-2, 6-(6-aminopyrazin-2-yl)-N-(4-(4-(oxetan-3-yl)piperazin-1-yl)phenyl)imidazo[1,2-a]pyrazin-8-amine], the “Hheps CL” value falls from 0.12 L/h/kg to 0.055 L/h/kg (2.2-fold).

`Nc1cncc(-c2cn3ccnc3c(Nc3ccc(N4CCO[C@@H](CO)C4)cc3)n2)n1` [Ex.-3, (R)-(4-(4-((6-(6-aminopyrazin-2-yl)imidazo[1,2-a]pyrazin-8-yl)amino)phenyl)morpholin-2-yl)methanol] and `Nc1cncc(-c2cn3ccnc3c(Nc3ccc(N4CCN(CC(CO)CO)CC4)cc3)n2)n1` [Ex.-6, 2-((4-(4-((6-(6-aminopyrazin-2-yl)imidazo[1,2-a]pyrazin-8-yl)amino)phenyl)piperazin-1-yl)methyl)propane-1,3-diol] are within 1.5-fold of each other in “Hheps CL” value: 0.09 L/h/kg for the first, 0.08 L/h/kg for the second.

`Cc1c(-c2cncc(N)n2)nc(Nc2ccc(N3CCN(C4COC4)CC3)cc2)c2nccn12` [Ex.-4, 6-(6-aminopyrazin-2-yl)-5-methyl-N-(4-(4-(oxetan-3-yl)piperazin-1-yl)phenyl)imidazo[1,2-a]pyrazin-8-amine] and `Nc1cncc(-c2cn3ccnc3c(Nc3ccc(N4CCN(C5COC5)CC4)c(OCCO)c3)n2)n1` [Ex.-5, 2-(5-((6-(6-aminopyrazin-2-yl)imidazo[1,2-a]pyrazin-8-yl)amino)-2-(4-(oxetan-3-yl)piperazin-1-yl)phenoxy)ethanol] are within 1.5-fold of each other in “Hheps CL” value: 0.08 L/h/kg for the first, 0.07 L/h/kg for the second.

In the case of `Cc1ncc(-c2cn3ccnc3c(Nc3ccc(N4CCN(C5COC5)CC4)c(OCCO)c3)n2)nc1N` [Ex.-7, 2-(5-((6-(6-amino-5-methylpyrazin-2-yl)imidazo[1,2-a]pyrazin-8-yl)amino)-2-(4-(oxetan-3-yl)piperazin-1-yl)phenoxy)ethanol], the “Hheps CL” value is reported as 0.05 L/h/kg.

Test system: not given
Assay: not given
Conditions: cited from earlier work

In the case of `CC[C@]1(O)C[C@H]2CN(CCc3c([nH]c4ccccc34)[C@@](C(=O)OC)(c3cc4c(cc3OC)N(C=O)[C@H]3[C@@](O)(C(=O)OC)[C@H](OC(C)=O)[C@]5(CC)C=CCN6CC[C@]43[C@@H]65)C2)C1` [Vincristine Sulfate, vincristine sulfate], the solubility in methanol is listed as “soluble”.
